Results as given in patent publication US20240189287A1, “PERIPHERALLY RESTRICTED CB1 RECEPTOR BLOCKERS AND USES THEREOF” (BIONANOSIM (BNS) LTD, priority 2021, published 2024).
Entries after “also recorded” stand apart in the source; their conditions may differ.

Experiments:
CB1 receptor [1] = target: CB1 receptor (Homo sapiens (Human), UniProt P21554); assay: CB1 receptor radioligand binding assay, membranes from human source
Method: (§1) Radioligand binding assays: Binding affinity was determined by a radioligand binding assay. The different BB8-conjugates binding to CB1 and CB2 receptors was assessed in competition displacement assays using [^3H]CP-55.940 as the radioligand and crude membranes from mouse brain for CB1 receptor and human kidney cells for CB2 receptor.
(§2) CB1 receptor binding assay: Mouse brain membranes were used as the source material for CB1 receptors. The displacement of specifically bound tritiated CP-55.940 from these membranes using a standard filtration assay was used to determine the Ki values for the test compounds. Briefly. 20 μg of protein was incubated for 1 h at 30° C. in the presence of 0.5 nM [^3H]CP-55,940 and various concentrations (10^−5M-10^−11M) of test compound/control, final volume of 1 mL. The incubation was terminated by rapid filtration and washing, and the amount of specifically bound [^3H]CP-55,940 was determined. Briefly, membranes with bound [^3H]CP-55,940 were separated and washed from free ligand by vacuum filtration, adsorbing the membrane onto a Whatman glass microfiber filter paper ([…], Cat #1821271). Finally, the Whatman filter paper with adsorbed membranes was cut and placed in scintillation liquid (Ultima Gold) for 1 h at 25° C. followed by a β counter reading of bound [^3H]CP-55,940 radioligand. All data were in triplicates with Ki values determined using GraphPad Prism 7.02 analysis software. […] In some cases, membranes from human source were used to determine CB1 receptor binding affinity.

CB1 receptor [2] = target: CB1 receptor (Mus musculus (Mouse), UniProt P47746); assay: CB1 receptor radioligand binding assay, [3H]CP-55,940 displacement, mouse brain membranes
Sequence of CB1 receptor (Mus musculus (Mouse), UniProt P47746) (P47746 whole entry): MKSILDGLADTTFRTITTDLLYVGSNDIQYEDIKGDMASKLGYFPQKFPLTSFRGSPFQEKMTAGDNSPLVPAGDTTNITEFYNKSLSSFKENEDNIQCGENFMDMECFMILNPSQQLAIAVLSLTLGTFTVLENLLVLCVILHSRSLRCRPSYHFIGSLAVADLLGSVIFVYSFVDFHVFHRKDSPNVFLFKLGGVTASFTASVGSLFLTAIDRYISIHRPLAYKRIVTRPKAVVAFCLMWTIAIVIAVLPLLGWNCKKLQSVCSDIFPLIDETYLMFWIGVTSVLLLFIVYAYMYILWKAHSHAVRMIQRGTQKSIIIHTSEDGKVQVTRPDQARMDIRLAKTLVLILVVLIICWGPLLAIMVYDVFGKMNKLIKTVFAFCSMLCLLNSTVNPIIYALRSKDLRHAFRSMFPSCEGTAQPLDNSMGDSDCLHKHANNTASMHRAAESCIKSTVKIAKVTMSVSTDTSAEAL
Method: as §1, §2

CB2 receptor = CB2 receptor (Homo sapiens (Human), UniProt P34972); assay: CB2 receptor radioligand binding assay, [3H]CP-55,940 displacement, human kidney membranes
Sequence of CB2 receptor (P34972 whole entry): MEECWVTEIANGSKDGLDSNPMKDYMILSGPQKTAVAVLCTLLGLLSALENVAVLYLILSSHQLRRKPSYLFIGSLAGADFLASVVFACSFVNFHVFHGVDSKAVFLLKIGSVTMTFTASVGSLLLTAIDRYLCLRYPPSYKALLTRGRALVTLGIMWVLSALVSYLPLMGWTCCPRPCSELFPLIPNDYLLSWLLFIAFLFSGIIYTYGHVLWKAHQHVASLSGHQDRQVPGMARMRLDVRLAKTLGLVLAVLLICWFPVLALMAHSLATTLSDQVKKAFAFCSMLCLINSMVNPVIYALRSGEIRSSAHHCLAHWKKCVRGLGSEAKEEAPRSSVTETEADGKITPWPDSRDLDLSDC
Method: as §1
CB2 receptor binding assay: Human kidney membranes were used as the source material for CB2 receptors. The displacement of specifically bound tritiated CP-55,940 from these membranes using a standard filtration assay was used to determine the Ki values for the test compounds. Briefly, 1.25 μg of protein was incubated for 1.5 h at 30° C. in the presence of 0.5 nM [^3H]CP-55,940 and various concentrations (10^−5M-10^−11M) of test compound/control, final volume of 1 mL. The incubation was terminated by rapid filtration and washing, and the amount of specifically bound [^3H]CP-55,940 was determined. Briefly, membranes with bound [^3H]CP-55,940 were separated and washed from free ligand by vacuum filtration, adsorbing the membrane onto a Whatman glass microfiber filter paper ([…], Cat #1821271). Finally, the Whatman filter paper with adsorbed membranes was cut and placed in scintillation liquid (Ultima Gold) for 1 h at 25° C. followed by a β counter reading of bound [^3H]CP-55,940 radioligand. All data were in triplicates with Ki values determined using GraphPad Prism 7.02 analysis software.

[3] = Pharmacokinetics after oral and IV dosing; type: in vivo, C57BL/6J mice; conditions: for Cmax: male, C57BL/6J, po
Method: Pharmacokinetics: Male C57BL/6J mice (7-9 weeks, N=3 in each group) were used in this study. Mice were fasted at least 12 hr prior to administration of test article and have access to food ad libitum 4 hr post dosing. Appropriate amount of test article was accurately weighted and mixed with the appropriate volume of vehicle to get a clear oral solution. The formulations were prepared on the day of dosing, and mice were dosed via either orally gavage or intravenous injection, up to 4 hr after formulations were prepared. About 30 μL blood per time point was collected from the saphenous vein followed by plasma preparation. Dose formulation and sample analysis was performed by LC-MS/MS method. Plasma concentration versus time data was analyzed by non-compartmental method.

mice = assay: Elevated plus-maze, anxiety-related behavior; type: in vivo; conditions: single dose 20 mg/kg PO
Method: Elevated plus-maze: Anxiety-related behaviors were assessed using the EPM test as reported previously. Animals were placed on the 5×5 cm central platform of an apparatus from which four arms, 30 cm×5 cm extended. Two of the arms (the closed arms) are enclosed within 15 cm high walls, and the two other arms (the open arms) have 1 cm high rims. The whole maze is elevated 75 cm above the ground. During the 6 min test time, the number of entries to each arm type (closed or open arms, frequencies) and the time spent in each type of arm (closed or open arms, duration) during the test were measured.

[4] = mouse, plasma, oral administration of 10 and 20 mg/kg, C57BL/6J male mice

Sequence of CB1 receptor (Homo sapiens (Human), UniProt P21554) (P21554 whole entry): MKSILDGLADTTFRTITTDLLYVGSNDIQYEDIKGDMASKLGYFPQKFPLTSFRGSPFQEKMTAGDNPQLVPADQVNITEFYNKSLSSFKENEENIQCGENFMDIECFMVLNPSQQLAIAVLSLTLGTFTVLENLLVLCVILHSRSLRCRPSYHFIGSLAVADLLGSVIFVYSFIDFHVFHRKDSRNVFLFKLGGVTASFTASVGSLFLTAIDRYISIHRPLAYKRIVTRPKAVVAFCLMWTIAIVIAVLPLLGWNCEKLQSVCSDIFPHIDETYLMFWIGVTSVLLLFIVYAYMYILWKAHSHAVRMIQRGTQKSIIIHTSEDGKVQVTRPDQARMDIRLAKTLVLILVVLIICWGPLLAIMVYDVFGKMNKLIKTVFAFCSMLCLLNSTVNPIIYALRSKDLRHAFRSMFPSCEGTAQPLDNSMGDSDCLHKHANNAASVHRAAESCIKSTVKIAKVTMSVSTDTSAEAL

## O=S(=O)(NC1CCCOc2c1nn(-c1ccccc1Cl)c2-c1ccc(Cl)cc1)c1ccc(Cl)cc1 (stereo not drawn) [BNS808, 4-chloro-N-[2-(2-chlorophenyl)-3-(4-chlorophenyl)-5,6,7,8-tetrahydrooxepino[3,2-c]pyrazol-8-yl]benzenesulfonamide]
CB1 receptor [1]
  Ki: 0.7 nM

## Cc1ccc(C)c(OCCCC(C)(C)C(=O)NC2CCCOc3c2nn(-c2ccccc2Cl)c3-c2ccc(Cl)cc2)c1 (stereo not drawn) [BNS822, N-[2-(2-chlorophenyl)-3-(4-chlorophenyl)-5,6,7,8-tetrahydrooxepino[3,2-c]pyrazol-8-yl]-5-(2,5-dimethylphenoxy)-2,2-dimethyl-pentanamide]
CB1 receptor [2]; CB1 receptor (mouse/human)
  affinity / potency against the CB1 receptor (in words): high potency
CB1 receptor [2]; mouse (m) CB1 receptor, read-out: CB1R Ki (nM) (m)
  Ki: 1.4 nM
CB2 receptor
  hCB2R Ki (nM): No binding
[3]; absolute, oral 10 and 20 mg/kg vs IV 1 mg/kg, C57BL/6J male mice
  Oral bioavail (%): 8.62-10.59%
[3]; mouse, plasma, 10 mg/kg, oral 10 mg/kg, mice
  Cmax: 283 ng/mL
[3]; mouse, plasma, 20 mg/kg, oral 20 mg/kg, mice
  Cmax: 811 ng/mL
[3]; mouse, plasma, 20 mg/kg, oral administration of 10 and 20 mg/kg (range over both doses), C57BL/6J male mice
  Cmax: 283 to 811 ng/mL
[3]; [4]
  Tmax: 2 h
  half-life: 312 min
[3]; oral administration of 10 and 20 mg/kg, C57BL/6J male mice
  T1/2: 5.2 h
mice
  anxiogenic behavior in the Elevated Plus Maze: nor did it induce a robust anxiogenic response; also recorded: no anxiogenic effect
